According to patent US10023602B2, “Hamamelitannin analogues and uses thereof” (Universiteit Gent, priority 2014, dated 2018):

What was measured:
[1] = system: methicillin resistant S. aureus Mu50 strain (S. aureus ATCC700699) biofilm; experiment: Biofilm susceptibility to vancomycin, pre-treatment regimen (biofilm formed in presence of compound, then vancomycin); type: cell-based; conditions: for Pretreat. (25 μM): percentage Colony Forming Units (CFU's) per biofilm: compound 25 μM during biofilm formation; for Pretreat. (25 μM): percentage Colony Forming Units (CFU's) per biofilm / Pretreat (100 μM): percentage Colony Forming Units (CFU's) per biofilm: then VAN 20 μg/ml, compared to the untreated (negative) control; for EC50: concentration needed to get 50% killing compared to antibiotic alone (VAN 20 μg/ml) and complete killing, read-out: Pretreat. (EC50); for Pretreat (100 μM): percentage Colony Forming Units (CFU's) per biofilm: compound 100 μM during biofilm formation
Outline: (§1)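 Mu50 biofilms from 10^8 CFU/ml inoculum (4 h adhesion, then 20 h, 37 °C). Pre-treatment: compound (0.1-250 μM) present during biofilm formation, then vancomycin 20 μg/ml alone 24 h; combination: mature biofilm given vancomycin 20 μg/ml plus compound 24 h. Survivors counted by plating versus vancomycin alone.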

[2] = system: methicillin resistant S. aureus Mu50 strain (S. aureus ATCC700699) biofilm; experiment: Biofilm susceptibility to vancomycin, combination treatment regimen (mature biofilm treated with compound plus vancomycin); type: cell-based; conditions: for Combin. (25 μM): percentage Colony Forming Units (CFU's) per biofilm: compound 25 μM together with VAN 20 μg/ml on mature biofilm; for Combin. (25 μM): percentage Colony Forming Units (CFU's) per biofilm / Combin. (100 μM): percentage Colony Forming Units (CFU's) per biofilm: compared to the untreated (negative) control; for EC50: concentration needed to get 50% killing compared to antibiotic alone (VAN 20 μg/ml) and complete killing, read-out: Combin. (EC50); for Combin. (100 μM): percentage Colony Forming Units (CFU's) per biofilm: compound 100 μM together with VAN 20 μg/ml on mature biofilm
Outline: as §1

SMILES: O=C(NC[C@]1(O)CO[C@H](CNC(=O)c2ccccc2Cl)[C@H]1O)c1cccc(Cl)c1 [compound 241, 2-chloro-N-(((2R,3R,4S)-4-((3-chlorobenzamido)methyl)-3,4-dihydroxytetrahydrofuran-2-yl)methyl)benzamide]
- Pretreat. (25 μM): percentage Colony Forming Units (CFU's) per biofilm [1]: 98.17 percentage
- Combin. (25 μM): percentage Colony Forming Units (CFU's) per biofilm [2]: 81.35 percentage

SMILES: O=C(NC[C@]1(O)CO[C@H](CNC(=O)c2ccccc2Cl)[C@H]1O)c1cccc(C(F)(F)F)c1 [compound 242, 2-chloro-N-(((2R,3R,4S)-3,4-dihydroxy-4-((3-(trifluoromethyl)benzamido)methyl)tetrahydrofuran-2-yl)methyl)benzamide]
- Pretreat. (25 μM): percentage Colony Forming Units (CFU's) per biofilm [1]: 117.15 percentage
- Combin. (25 μM): percentage Colony Forming Units (CFU's) per biofilm [2]: 87.14 percentage

SMILES: O=C(NC[C@]1(O)CO[C@H](CNC(=O)c2ccccc2Cl)[C@H]1O)c1cccnc1 [compound 243, N-(((3S,4R,5R)-5-((2-chlorobenzamido)methyl)-3,4-dihydroxytetrahydrofuran-3-yl)methyl)nicotinamide]
- Pretreat. (25 μM): percentage Colony Forming Units (CFU's) per biofilm [1]: 85.00 percentage
- Combin. (25 μM): percentage Colony Forming Units (CFU's) per biofilm [2]: 51.83 percentage

SMILES: Cc1ccccc1C(=O)NC[C@]1(O)CO[C@H](CNC(=O)c2ccccc2Cl)[C@H]1O [compound 244, 2-chloro-N-(((2R,3R,4S)-3,4-dihydroxy-4-((2-methylbenzamido)methyl)tetrahydrofuran-2-yl)methyl)benzamide]
- Pretreat. (25 μM): percentage Colony Forming Units (CFU's) per biofilm [1]: 41.07 percentage
- EC50 [1]: 56.4 µM
- Combin. (25 μM): percentage Colony Forming Units (CFU's) per biofilm [2]: 54.77 percentage
- EC50 [2]: 124 µM

SMILES: O=C(NC[C@]1(O)CO[C@H](CNC(=O)c2ccccc2Cl)[C@H]1O)c1ccccc1F [compound 245, 2-chloro-N-(((2R,3R,4S)-4-((2-fluorobenzamido)methyl)-3,4-dihydroxytetrahydrofuran-2-yl)methyl)benzamide]
- Pretreat. (25 μM): percentage Colony Forming Units (CFU's) per biofilm [1]: 61.75 percentage
- EC50 [1]: 48.6 µM
- Combin. (25 μM): percentage Colony Forming Units (CFU's) per biofilm [2]: 44.14 percentage
- EC50 [2]: 62.2 µM

SMILES: O=C(NC[C@]1(O)CO[C@H](CNC(=O)c2ccccc2Cl)[C@H]1O)c1ccco1 [compound 246, N-(((3S,4R,5R)-5-((2-chlorobenzamido)methyl)-3,4-dihydroxytetrahydrofuran-3-yl)methyl)furan-2-carboxamide]
- Pretreat. (25 μM): percentage Colony Forming Units (CFU's) per biofilm [1]: 87.98 percentage
- Combin. (25 μM): percentage Colony Forming Units (CFU's) per biofilm [2]: 62.82 percentage

SMILES: O=C(NC[C@]1(O)CO[C@H](CNC(=O)c2ccccc2Cl)[C@H]1O)c1ccoc1 [compound 247, N-(((3S,4R,5R)-5-((2-chlorobenzamido)methyl)-3,4-dihydroxytetrahydrofuran-3-yl)methyl)furan-3-carboxamide]
- Pretreat. (25 μM): percentage Colony Forming Units (CFU's) per biofilm [1]: 42.14 percentage
- EC50 [1]: 68.5 µM
- Combin. (25 μM): percentage Colony Forming Units (CFU's) per biofilm [2]: 49.94 percentage
- EC50 [2]: 76.7 µM

SMILES: O=C(NC[C@]1(O)CO[C@H](CNC(=O)c2ccccc2Cl)[C@H]1O)c1cncnc1 [compound 248, N-(((3S,4R,5R)-5-((2-chlorobenzamido)methyl)-3,4-dihydroxytetrahydrofuran-3-yl)methyl)pyrimidine-5-carboxamide]
- Pretreat. (25 μM): percentage Colony Forming Units (CFU's) per biofilm [1]: 64.01 percentage
- Combin. (25 μM): percentage Colony Forming Units (CFU's) per biofilm [2]: 65.41 percentage

SMILES: O=C(NC[C@H]1OC[C@@](O)(CNC(=O)c2ccccc2Cl)[C@@H]1O)c1ccccc1Cl [compound 249, N,N′-(((2R,3R,4S)-3,4-dihydroxytetrahydrofuran-2,4-diyl)bis(methylene))bis(2-chlorobenzamide)]
- Pretreat (100 μM): percentage Colony Forming Units (CFU's) per biofilm [1]: 6.67 percentage
- EC50 [1]: 5.36 µM
- Combin. (100 μM): percentage Colony Forming Units (CFU's) per biofilm [2]: 13.59 percentage
- EC50 [2]: 28.4 µM

SMILES: O=C(NC[C@H]1OC[C@@](O)(CNC(=O)c2ccccc2Cl)[C@@H]1O)c1ccc(-c2ccccc2)cc1 [compound 250, N-(((2R,3R,4S)-4-((2-chlorobenzamido)methyl)-3,4-dihydroxytetrahydrofuran-2-yl)methyl)-[1,1′-biphenyl]-4-carboxamide]
- Pretreat (100 μM): percentage Colony Forming Units (CFU's) per biofilm [1]: 18.82 percentage
- EC50 [1]: 23 µM
- Combin. (100 μM): percentage Colony Forming Units (CFU's) per biofilm [2]: 29.48 percentage
- EC50 [2]: 61.3 µM

SMILES: O=C(NC[C@H]1OC[C@@](O)(CNC(=O)c2ccccc2Cl)[C@@H]1O)c1ccnnc1 [compound 251, N-(((2R,3R,4S)-4-((2-chlorobenzamido)methyl)-3,4-dihydroxytetrahydrofuran-2-yl)methyl)pyridazine-4-carboxamide]
- Pretreat (100 μM): percentage Colony Forming Units (CFU's) per biofilm [1]: 3.85 percentage
- EC50 [1]: 3.38 µM
- Combin. (100 μM): percentage Colony Forming Units (CFU's) per biofilm [2]: 37.03 percentage
- EC50 [2]: 98.9 µM

SMILES: O=C(NC[C@]1(O)CO[C@H](CNC(=O)c2ccccc2Cl)[C@H]1O)c1ccc(-c2ccccc2)cc1 [compound 252, N-(((3S,4R,5R)-5-((2-chlorobenzamido)methyl)-3,4-dihydroxytetrahydrofuran-3-yl)methyl)-[1,1′-biphenyl]-4-carboxamide]
- Pretreat (100 μM): percentage Colony Forming Units (CFU's) per biofilm [1]: 2.25 percentage
- EC50 [1]: 11.8 µM
- Combin. (100 μM): percentage Colony Forming Units (CFU's) per biofilm [2]: 29.40 percentage
- EC50 [2]: 69.2 µM

SMILES: O=C(NC[C@H]1OC[C@@](O)(CNC(=O)c2ccc(-c3ccccc3)cc2)[C@@H]1O)c1ccnnc1 [compound 253, N-(((2R,3R,4S)-4-([1,1′-biphenyl]-4-carboxamidomethyl)-3,4-dihydroxytetrahydrofuran-2-yl)methyl)pyridazine-4-carboxamide]
- Pretreat (100 μM): percentage Colony Forming Units (CFU's) per biofilm [1]: 4.25 percentage
- EC50 [1]: 8.54 µM
- Combin. (100 μM): percentage Colony Forming Units (CFU's) per biofilm [2]: 22.50 percentage
- EC50 [2]: 45.4 µM

SMILES: O=C(NC[C@]1(O)CO[C@H](CN2C(=O)c3ccccc3C2=O)[C@H]1O)c1ccc(-c2ccccc2)cc1 [compound 254, N-(((3S,4R,5R)-5-((1,3-dioxoisoindolin-2-yl)methyl)-3,4-dihydroxytetrahydrofuran-3-yl)methyl)-[1,1′-biphenyl]-4-carboxamide]
- Pretreat (100 μM): percentage Colony Forming Units (CFU's) per biofilm [1]: 3.52 percentage
- EC50 [1]: 4.79 µM
- Combin. (100 μM): percentage Colony Forming Units (CFU's) per biofilm [2]: 30.44 percentage
- EC50 [2]: 57.1 µM

SMILES: O=C(NC[C@]1(O)CO[C@H](CNC(=O)c2ccccc2Cl)[C@H]1O)c1ccnnc1 [compound 255, N-(((3S,4R,5R)-5-((2-chlorobenzamido)methyl)-3,4-dihydroxytetrahydrofuran-3-yl)methyl)pyridazine-4-carboxamide]
- Pretreat (100 μM): percentage Colony Forming Units (CFU's) per biofilm [1]: 8.03 percentage
- EC50 [1]: 15 µM
- Combin. (100 μM): percentage Colony Forming Units (CFU's) per biofilm [2]: 25.78 percentage
- EC50 [2]: 55.7 µM

SMILES: O=C(NC[C@H]1OC[C@@](O)(CNC(=O)c2ccnnc2)[C@@H]1O)c1ccc(-c2ccccc2)cc1 [compound 256, N-(((3S,4R,5R)-5-([1,1′-biphenyl]-4-carboxamidomethyl)-3,4-dihydroxytetrahydrofuran-3-yl)methyl)pyridazine-4-carboxamide]
- Pretreat (100 μM): percentage Colony Forming Units (CFU's) per biofilm [1]: 14.25 percentage
- EC50 [1]: 15.5 µM
- Combin. (100 μM): percentage Colony Forming Units (CFU's) per biofilm [2]: 29.97 percentage
- EC50 [2]: 53.4 µM

SMILES: O=C(NC[C@H]1OC[C@@](O)(CNC(=O)c2ccnnc2)[C@@H]1O)c1ccnnc1 [compound 257, N,N′-(((2R,3R,4S)-3,4-dihydroxytetrahydrofuran-2,4-diyl)bis(methylene))bis(pyridazine-4-carboxamide)]
- Pretreat (100 μM): percentage Colony Forming Units (CFU's) per biofilm [1]: 1.71 percentage
- EC50 [1]: 7.13 µM
- Combin. (100 μM): percentage Colony Forming Units (CFU's) per biofilm [2]: 17.13 percentage
- EC50 [2]: 18 µM

SMILES: O=C(NC[C@]1(O)CO[C@H](CN2C(=O)c3ccccc3C2=O)[C@H]1O)c1ccnnc1 [compound 258, N-(((3S,4R,5R)-5-((1,3-dioxoisoindolin-2-yl)methyl)-3,4-dihydroxytetrahydrofuran-3-yl)methyl)pyridazine-4-carboxamide]
- Pretreat (100 μM): percentage Colony Forming Units (CFU's) per biofilm [1]: 0.73 percentage
- EC50 [1]: 5.85 µM
- Combin. (100 μM): percentage Colony Forming Units (CFU's) per biofilm [2]: 23.56 percentage
- EC50 [2]: 11.4 µM

SMILES: O=C(Cc1ccccc1)NC[C@]1(O)CO[C@H](CNC(=O)c2ccccc2Cl)[C@H]1O [compound 259, 2-chloro-N-(((2R,3R,4S)-3,4-dihydroxy-4-((2-phenylacetamido)methyl)tetrahydrofuran-2-yl)methyl)benzamide]
- Pretreat (100 μM): percentage Colony Forming Units (CFU's) per biofilm [1]: 55.12 percentage
- Combin. (100 μM): percentage Colony Forming Units (CFU's) per biofilm [2]: 71.25 percentage

SMILES: O=C(CCc1ccccc1)NC[C@]1(O)CO[C@H](CNC(=O)c2ccccc2Cl)[C@H]1O [compound 260, 2-chloro-N-(((2R,3R,4S)-3,4-dihydroxy-4-((3-phenylpropanamido)methyl)tetrahydrofuran-2-yl)methyl)benzamide]
- Pretreat (100 μM): percentage Colony Forming Units (CFU's) per biofilm [1]: 57.01 percentage
- Combin. (100 μM): percentage Colony Forming Units (CFU's) per biofilm [2]: 71.12 percentage

SMILES: CN(C[C@H]1OC[C@@](O)(CNC(=O)c2ccccc2)[C@@H]1O)C(=O)c1ccccc1 [compound 261, N-(((2R,3R,4S)-4-(benzamidomethyl)-3,4-dihydroxytetrahydrofuran-2-yl)methyl)-N-methylbenzamide]
- Pretreat (100 μM): percentage Colony Forming Units (CFU's) per biofilm [1]: 6.09 percentage
- EC50 [1]: 8.5 µM
- Combin. (100 μM): percentage Colony Forming Units (CFU's) per biofilm [2]: 10.02 percentage
- EC50 [2]: 24.3 µM
